Laboratory results from patent US20240067693A1, “POLYPEPTIDES AND USES THEREOF” (MEDIMMUNE LIMITED, priority 2020, published 2024).
Numbered stars: 1 amine (or outer) side, 2 acyl side, 3 side chain; on linkers, the order of the positions; unused ones are H or OH. Bridge positions count the residues as written; N and C are the ends. Square brackets hold non-standard residues; d marks the D form. Side chains are listed from the residue outwards. Peptide text beside a SMILES is read from it. * marks the point of attachment. C18 diacid = O=C(O)CCCCCCCCCCCCCCCCC(=O)*; γGlu = O=C(O)[C@H](CCC(=O)[*:2])N[*:1]; Aib = CC(C)(N)C(=O)O

Legend:
[1] = molecular target: T1, human amylin receptor (calcitonin receptor co-expressed with receptor activity modifying protein, RAMP3) (hAMYR3) (Homo sapiens, UniProt O60896+P30988); test: cAMP production in 1321N1 cells with stable recombinant expression of human amylin receptor (hAMYR3); type: cell-based; settings: for Ratio (selectivity hAMYR vs hCTR, ratio of EC50 values at the two receptors): EC50 hCTR / EC50 hAMYR3; for EC50: cAMP, 1321N1 cells, assay buffer with 0.1% BSA, read-out: EC50 (pM) hAMYR3
T1 construct: expressed in transfected cells
T1 sequence (P30988 25-474): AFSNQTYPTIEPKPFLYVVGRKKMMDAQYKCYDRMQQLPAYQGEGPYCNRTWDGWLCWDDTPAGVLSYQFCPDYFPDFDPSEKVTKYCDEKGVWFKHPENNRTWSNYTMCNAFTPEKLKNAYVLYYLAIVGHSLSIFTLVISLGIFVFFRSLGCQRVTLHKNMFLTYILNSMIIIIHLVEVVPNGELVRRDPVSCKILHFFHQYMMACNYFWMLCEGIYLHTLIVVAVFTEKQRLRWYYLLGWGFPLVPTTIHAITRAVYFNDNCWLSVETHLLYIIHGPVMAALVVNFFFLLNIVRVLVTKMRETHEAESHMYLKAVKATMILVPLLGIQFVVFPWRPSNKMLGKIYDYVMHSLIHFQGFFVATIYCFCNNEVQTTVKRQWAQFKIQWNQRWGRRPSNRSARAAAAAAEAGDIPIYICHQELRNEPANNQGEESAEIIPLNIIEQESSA
T1 sequence (O60896 24-148 partner): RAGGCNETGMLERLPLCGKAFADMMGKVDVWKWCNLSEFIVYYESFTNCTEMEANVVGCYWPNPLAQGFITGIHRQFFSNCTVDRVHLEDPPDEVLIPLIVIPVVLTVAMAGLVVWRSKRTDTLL
How it was run: (§1)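 Receptor-expressing cells (human receptors in 1321N1, rat receptors in HEK) incubated 30 min at room temperature with peptide in HBSS/HEPES pH 7.4, 0.1% BSA, 0.5 mM IBMX. cAMP read by HTRF; EC50 from 4-parameter fit as % of maximal amylin or calcitonin response.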

[2] = molecular target: T2, human calcitonin receptor (hCTR) (Homo sapiens, UniProt P30988); test: cAMP production in 1321N1 cells with stable recombinant expression of human calcitonin receptor (hCTR); type: cell-based; settings: cAMP, 1321N1 cells, assay buffer with 0.1% BSA; read-out: EC50 (pM) hCTR
T2 construct: expressed in transfected cells
T2 sequence (P30988 25-474): T1 sequence (P30988 25-474)
How it was run: as §1

Ratio (selectivity hAMYR vs hCTR, ratio of EC50 values at the two receptors) [1] | EC50 [1] [pM] | EC50 [2] [pM] | Structure (SMILES)
12 | 200 | 2360 | CC[C@H](C)[C@H](NC(=O)[C@@H]1CCCN1C(=O)CNC(=O)[C@H](Cc1ccccc1)NC(=O)[C@H](CC(N)=O)NC(=O)C(C)(C)NC(=O)[C@H](CO)NC(=O)[C@H](CO)NC(=O)[C@H](Cc1c[nH]cn1)NC(=O)[C@@H](NC(=O)[C@H](CC(C)C)NC(=O)[C@H](Cc1ccccc1)NC(=O)[C@H](CC(N)=O)NC(=O)[C@H](C)NC(=O)[C@H](CC(C)C)NC(=O)[C@H](CCCNC(=N)N)NC(=O)[C@H](CCC(N)=O)NC(=O)[C@@H](NC(=O)[C@H](C)NC(=O)[C@@H]1CSSC[C@H](NC(=O)[C@@H](N)CCCCNC(=O)CC[C@H](NC(=O)CC[C@H](NC(=O)CCCCCCCCCCCCCCCCC(=O)O)C(=O)O)C(=O)O)C(=O)N[C@@H](CC(N)=O)C(=O)N[C@@H]([C@@H](C)O)C(=O)N[C@@H](C)C(=O)N[C@@H]([C@@H](C)O)C(=O)N1)[C@@H](C)O)C(C)C)C(=O)N[C@@H](CC(C)C)C(=O)N1CCC[C@H]1C(=O)N1CCC[C@H]1C(=O)N[C@H](C(=O)N[C@@H](CC(N)=O)C(=O)N[C@H](C(=O)NCC(=O)N[C@@H](CO)C(=O)NC(C)(C)C(=O)N[C@H](C(=O)N[C@@H](Cc1ccc(O)cc1)C(N)=O)[C@@H](C)O)C(C)C)[C@@H](C)O [Peptide 91, K(γE-γE-C18diacid)[CNTATC]ATQRLANFLVHSS(Aib)NFGPILPPTNVGS(Aib)TY-amide] (H-K([γGlu-γGlu-C18 diacid])CNTATCATQRLANFLVHSS[Aib]NFGPILPPTNVGS[Aib]TY-NH2; disulfide 2-7; N-terminus assumed)
130 | 341 | 44400 | CC[C@H](C)[C@H](NC(=O)[C@@H]1CCCN1C(=O)CNC(=O)[C@H](Cc1ccccc1)NC(=O)[C@H](CC(N)=O)NC(=O)C(C)(C)NC(=O)[C@H](CO)NC(=O)[C@H](CO)NC(=O)[C@H](Cc1c[nH]cn1)NC(=O)[C@H](CCCNC(=N)N)NC(=O)[C@H](CC(C)C)NC(=O)[C@H](Cc1ccccc1)NC(=O)[C@H](CC(N)=O)NC(=O)[C@H](C)NC(=O)[C@H](CC(C)C)NC(=O)[C@H](CCCNC(=N)N)NC(=O)[C@H](CCC(N)=O)NC(=O)[C@@H](NC(=O)[C@H](C)NC(=O)[C@@H]1CSSC[C@H](NC(=O)[C@@H](N)CCCCNC(=O)CC[C@H](NC(=O)CC[C@H](NC(=O)CCCCCCCCCCCCCCCCC(=O)O)C(=O)O)C(=O)O)C(=O)N[C@@H](CC(N)=O)C(=O)N[C@@H]([C@@H](C)O)C(=O)N[C@@H](C)C(=O)N[C@@H]([C@@H](C)O)C(=O)N1)[C@@H](C)O)C(=O)N[C@@H](CC(C)C)C(=O)N1CCC[C@H]1C(=O)N1CCC[C@H]1C(=O)N[C@H](C(=O)N[C@@H](CC(N)=O)C(=O)N[C@H](C(=O)NCC(=O)N[C@@H](CO)C(=O)NC(C)(C)C(=O)N[C@H](C(=O)N[C@@H](Cc1ccc(O)cc1)C(N)=O)[C@@H](C)O)C(C)C)[C@@H](C)O [Peptide 92, K(γE-γE-C18diacid)[CNTATC]ATQRLANFLRHSS(Aib)NFGPILPPTNVGS(Aib)TY-amide] (H-K([γGlu-γGlu-C18 diacid])CNTATCATQRLANFLRHSS[Aib]NFGPILPPTNVGS[Aib]TY-NH2; disulfide 2-7; N-terminus assumed)
